A short description of assay [1]: In vivo screen APCC: plasma total cholesterol in rats on high fat, high cholesterol diet with 0.5% cholic acid. Also on record: species or system male Sprague-Dawley rats. As to conditions: rat APCC, high fat high cholesterol diet overnight; for change in vivo at 30 mg/kg / change in vivo at 50 mg/kg: read-out: % Change in Plasma TC Values (mg/dL); for change in vivo at 50 mg/kg: *Dosed at 50 mg/kg. The source says:
In one in vivo screen designated APCC, male Sprague-Dawley rats (200 to 225 g) were randomly divided into treatment groups and dosed at 4 PM with either vehicle (CMC/Tween) or suspensions of compounds in vehicle. The norma chow diet was then replaced with a high fat, high cholesterol diet with 0.5% cholic acid. The rats consumed this diet ad libitum during the night and were sacrificed at 8 AM to obtain blood samples for cholesterol analysis using standard procedures. Statistical differences between mean cholesterol values for the same vehicle were determined using analysis of variance followed by Fisher's least significant test. Compounds were dosed at 30 mg/kg unless otherwise noted.

Assay [2] concerns the target T1, acyl-CoA: cholesterol acyltransferase (ACAT) (Oryctolagus cuniculus, UniProt G1SFD9).
T1 construct: tissue preparation containing rabbit intestinal microsomes; from tissue; host or cells: rabbit intestinal microsomes
T1 sequence (G1SFD9 1-524): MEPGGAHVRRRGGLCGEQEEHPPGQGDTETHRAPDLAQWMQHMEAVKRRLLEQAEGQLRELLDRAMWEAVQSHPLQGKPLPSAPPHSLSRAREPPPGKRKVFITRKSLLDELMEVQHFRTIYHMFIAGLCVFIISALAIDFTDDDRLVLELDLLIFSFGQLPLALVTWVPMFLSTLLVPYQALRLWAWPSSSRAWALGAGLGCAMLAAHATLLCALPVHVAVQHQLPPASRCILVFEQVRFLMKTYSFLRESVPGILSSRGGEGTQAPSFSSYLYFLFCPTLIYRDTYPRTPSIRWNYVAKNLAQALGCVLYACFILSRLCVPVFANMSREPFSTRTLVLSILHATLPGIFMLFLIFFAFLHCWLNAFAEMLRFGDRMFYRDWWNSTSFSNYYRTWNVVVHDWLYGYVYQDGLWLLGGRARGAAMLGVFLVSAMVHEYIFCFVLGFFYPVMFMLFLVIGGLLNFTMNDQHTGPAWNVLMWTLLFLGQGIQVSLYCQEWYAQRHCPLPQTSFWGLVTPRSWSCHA
Put plainly: In vitro ACAT inhibition (IAI): radiolabeled cholesterol oleate formed from radiolabeled oleic acid in rabbit intestinal microsomes. The assay is classed as biochemical. Here is the method: The ability of representative compounds of the present invention to inhibit ACAT was measured using an in vitro test more fully described in F. J. Field and R. G. Salone, Biochemica et Biophysica 712:557-570 (1982). The test assesses the ability of a test compound to inhibit the acylation of cholesterol by oleic acid by measuring the amount of radiolabeled cholesterol oleate formed from radiolabeled oleic acid in a tissue preparation containing rabbit intestinal microsomes.
The data appear in Table 1 where they are expressed as IC50 values; i.e., the concentration of test compound required to inhibit the activity of the enzyme by 50%.

Setting [3] is: rabbit intestinal microsomes, ACAT, read-out: IAI IC50.

A word on the IC50: it is the concentration needed to halve the response being measured.

Read-outs that look alike come from different tables or passages of the source.

In the case of `CCCCCCCCCCC(C)OC(=O)NC(=O)Nc1c(C(C)C)cccc1C(C)C` (racemic) [Example 19, (±)[[[2,6-bis(1-methylethyl)phenyl]amino]carbonyl]carbamic acid, 1-methylundecyl ester], the change in vivo at 30 mg/kg in assay [1] (30 mg/kg) is -26%.

Take `CCCCCCCC(C)OC(=O)NC(=O)Nc1c(C(C)C)cccc1C(C)C` (racemic) [Example 20, (±)[[[2,6-bis(1-methylethyl)phenyl]amino]carbonyl]carbamic acid, 1-methyloctyl ester]: the change in vivo at 30 mg/kg in assay [1] (30 mg/kg) was -24%.

`CCCCCC(C)OC(=O)NC(=O)Nc1c(C(C)C)cccc1C(C)C` (racemic) [Example 21, (±)[[[2,6-bis(1-methylethyl)phenyl]amino]carbonyl]carbamic acid, 1-methylhexyl ester]: in assay [1] (30 mg/kg), the change in vivo at 30 mg/kg is -22%.

Take `CCCCCCCCC(C)OC(=O)NC(=O)Nc1c(C(C)C)cccc1C(C)C` (racemic) [Example 22, (±)[[[2,6-bis(1-methylethyl)phenyl]amino]carbonyl]carbamic acid, 1-methylnonyl ester]: the change in vivo at 30 mg/kg in assay [1] (30 mg/kg) was -22%.

As for `CCCCCCCCCCCCCCC(C)OC(=O)NC(=O)Nc1c(C(C)C)cccc1C(C)C` (racemic) [Example 23, (±)[[[2,6-bis(1-methylethyl)phenyl]amino]carbonyl]carbamic acid, 1-methylpentadecyl ester], the change in vivo at 30 mg/kg in assay [1] (30 mg/kg) is -26%.

Regarding `CCCCCCCCCCCCC(C)OC(=O)NC(=O)Nc1c(C(C)C)cccc1C(C)C` (racemic) [Example 24, (±)[[[2,6-bis(1-methylethyl)phenyl]amino]carbonyl]carbamic acid, 1-methyltridecyl ester], the change in vivo at 30 mg/kg in assay [1] (30 mg/kg) is -33%.

For the compound `CC(C)c1cccc(C(C)C)c1NC(=O)N(C)C(=O)N(c1ccccc1)c1ccccc1` [Example 1, N'-[2,6-bis(1-methylethyl)phenyl]-2-methyl-N,N-diphenyliminodicarbonic diamide], the change in vivo at 30 mg/kg in assay [1] (30 mg/kg) is -9%. Also, in assay [2] (setting [3]), the IC50 amounted to 600 nM.

Take `CC(C)c1cccc(C(C)C)c1NC(=O)NC(=O)NC(c1ccccc1)c1ccccc1` [Example 2, N-[2,6-bis(1-methylethyl)phenyl)-N'-(diphenylmethyl) iminodicarbonic amide]: the IC50 in assay [2] (setting [3]) is more than 1000 nM.

As to `CC(C)c1cccc(C(C)C)c1NC(=O)NC(=O)Nc1c(C(C)C)cccc1C(C)C` [Example 3, N,N'-bis[2,6-bis(1-methylethyl)phenyl]imidodicarbonic diamide], the IC50 in assay [2] (setting [3]) was more than 5000 nM.

With `CC(C)c1cccc(C(C)C)c1NC(=O)NC(=O)N(Cc1ccccc1)Cc1ccccc1` [Example 4, N'-[2,6-bis(1-methylethyl)phenyl]-N,N-bis(phenylmethyl)imidodicarbonic diamide], the change in vivo at 50 mg/kg in assay [1] was -13%.

Regarding `CC(C)c1cccc(C(C)C)c1NC(=O)NC(=O)N(c1ccccc1)c1ccccc1` [Example 5, N'-[2,6-bis(1-methylethyl)phenyl]-N,N-diphenylimidodicarbonic diamide], in assay [1], the change in vivo at 50 mg/kg was -40%.

On to `CCCCCCCCN(CCCCCCCC)C(=O)NC(=O)Nc1c(C(C)C)cccc1C(C)C` [Example 6, N-[2,6-bis(1-methylethyl)phenyl]-N,N-dioctylimidodicarbonic diamide], for which the change in vivo at 50 mg/kg in assay [1] was -5%.

Take `CCCCN(CCCC)C(=O)NC(=O)Nc1c(C(C)C)cccc1C(C)C` [Example 7, N'-[2,6-bis(1-methylethyl)phenyl]-N,N-dibutylimidodicarbonic diamide]: the change in vivo at 50 mg/kg in assay [1] is -23%.

For `CC(C)c1cccc(C(C)C)c1NC(=O)NC(=O)N1c2ccccc2CCc2ccccc21` [Example 8, N-[[[2,6-bis(1-methylethyl)phenyl]amino]carbonyl]-10,11-dihydro-5H-dibenz[b,f]azepin-5-carboxamide], the change in vivo at 50 mg/kg in assay [1] is -18%. In assay [2] (setting [3]), the IC50 worked out at 890 nM.

Consider `CC(C)c1cccc(C(C)C)c1NC(=O)NC(=O)N1CCCC1` [Example 9, N-[[[2,6-bis(1-methylethyl)phenyl]amino]carbonyl]-1-pyrrolidinecarboxamide], for which the half-maximal inhibitory concentration (IC50) in assay [2] (setting [3]) was more than 5000 nM.

As to `CCN(CC)C(=O)NC(=O)Nc1c(C(C)C)cccc1C(C)C` [Example 10, N'-[2,6-bis(1-methylethyl)phenyl]-N,N-diethylimidodicarbonic diamide], the IC50 in assay [2] (setting [3]) is more than 5000 nM.

As for `CC(C)c1cccc(C(C)C)c1NC(=O)NC(=O)N(Cc1ccccc1)C(C)C` [Example 11, N'-[2,6-bis(1-methylethyl)phenyl]-N-(1-methylethyl)-N-(phenylmethyl)imidodicarbonic diamide], the change in vivo at 50 mg/kg in assay [1] was -27%.

Regarding `CC(C)c1cccc(C(C)C)c1NC(=O)NC(=O)N1c2ccccc2Sc2ccccc21` [Example 12, N-[[[2,6-bis(1-methylethyl)phenyl]amino]carbonyl]-10H-phenothiazine-10-carboxamide], the change in vivo at 50 mg/kg in assay [1] was -19%.

For `CC(C)c1cccc(C(C)C)c1NC(=O)NC(=O)N1CCC(c2ccccc2)CC1` [Example 13, N-[[[2,6-bis(1-methylethyl)phenyl]amino]carbonyl]-1-[(4-phenyl)piperidine]carboxamide], the IC50 in assay [2] (setting [3]) turned out to be 3500 nM.

`CCCCCCCCCCCCCCN(C)C(=O)NC(=O)Nc1c(C(C)C)cccc1C(C)C` [Example 14, N'-[2,6-bis(1-methylethyl)phenyl]-N-methyl-N-tetradecylimidodicarbonic diamide]: in assay [1] (30 mg/kg), the change in vivo at 30 mg/kg was -8%.

Turning to `CC(C)c1cccc(C(C)C)c1NC(=O)NC(=O)Oc1c(C(C)C)cccc1C(C)C` [Example 15, [[[2,6-bis(1-methylethyl)phenyl]amino]carbonyl] carbamic acid,2,6-bis(1-methylethyl)phenyl ester], the change in vivo at 30 mg/kg in assay [1] (30 mg/kg) was -9%.

With `CCCCCCCCCCCCC(C)(C)OC(=O)NC(=O)Nc1c(C(C)C)cccc1C(C)C` [Example 17, [[[2,6-bis(1-methylethyl)phenyl]amino]carbonyl]carbamic acid, 1,1-dimethyltridecyl ester], the change in vivo at 30 mg/kg in assay [1] (30 mg/kg) is -14%.

With `CCCCCCCCCCCCOC(=O)NC(=O)Nc1c(C(C)C)cccc1C(C)C` [Example 18, [[[2,6-bis(1-methylethyl)phenyl]amino]carbonyl]carbamic acid, dodecyl ester], in assay [1] (30 mg/kg), the change in vivo at 30 mg/kg was -38%.

`CC(C)c1cccc(C(C)C)c1OC(=O)NC(=O)NC(c1ccccc1)c1ccccc1` [Example 25, [[(diphenylmethyl)amino]carbonyl]carbamic acid, 2,6-bis(1-methylethyl)phenyl ester]: in assay [1] (30 mg/kg), the “% Change in Plasma TC Values (mg/dL)” value is “No change”. The compound further returned an IC50 in assay [2] of more than 1000 nM.
